Test results reported in publication PMC11672750, “PfGSTF2 endows resistance to quizalofop‐p‐ethyl in Polypogon fugax by GSH conjugation” (Plant Biotechnology Journal, 2024).

Tested on: PfGSTF58
Assay: absorbance at […] nm, Michaelis-Menten fit
Type: biochemical, Polypogon fugax
Conditions: GSH co-substrate; 30 °C

O=[N+]([O-])c1ccc(Cl)c([N+](=O)[O-])c1 [1-chloro-2,4-dinitrobenzene]
Km: 450 ± 90 µM
